Test results as given in patent US20260000766A1, “ULTRASOUND OPTOGENETIC COMPOSITIONS AND METHODS” (BOARD OF REGENTS, THE UNIVERSITY OF TEXAS SYSTEM, priority 2022, published 2026).

Experiment: Fluorescence spectrum tests of L012 at different pH and H2O2 concentration
Assay type: physicochemical
Protocol: The fluorescence spectrum tests of L012 at different pH and H2O2 concentration. the quantum yield of the L012 solution at different Ph was investigated. 1 mL L012 solution (0.5 mg/mL) with pH 7.4, 8.5, and 10.0 was mixed with H2O2, where the final concentration of H2O2 was 250 μM. The fluorescence spectrum was recorded via Fluorolog3 Fluorometer. In addition, we also investigated the quantum yield of the L012 solution with different H2O2 concentrations at pH 7.4. 1 mL L012 solution (0.5 mg/mL) with different H2O2 concentrations (50, 250, and 500 μM) at pH 7.4 was prepared at first, and the fluorescence spectrum was also recorded via Fluorolog3 Fluorometer.

improvement of fluorescence intensity (H2O2 concentration increased from 50 to 500 μM): around four
increase of fluorescence intensity (pH changed from 7.4 to 10): around 30%
Compound: Nc1c(-c2ccccc2)nc(Cl)c2c([O-])n[nH]c(=O)c12.[Na+] [L012, L012 sodium salt]
